Measured values taken from patent publication US20160256449A1, “H3 RECEPTOR ANTAGONIST FOR USE IN THE TREATMENT OF ALZHEIMER'S DISEASE” (SANOFI, priority 2013, published 2016).

Tests used:
Type in all cases: in vivo, human
[1] = system: patients with mild to moderate Alzheimer's disease; assay: clinical study, AES-I apathy score; settings: 5 mg/day with donepezil
Protocol: “AES-I” as used herein, refers to the Apathy Evaluation Scale for Informant which assess global measure of apathy. Scores range from 18 (best possible) to 72 (worst possible).
(§1) A randomized, double-blind, parallel-group, placebo-controlled clinical trial was performed to study the effect on cognitive performance, safety, and tolerability of 2-(cyclohexylmethyl)-N-{2-[(2S)-1-methylpyrrolidin-2-yl]ethyl}-1,2,3,4-tetrahydroisoquinoline-7-sulfonamide difumarate monohydrate as adjunct treatment to donepezil.
(§2) More specifically, patients with mild to moderate Alzheimer's disease on stable donepezil therapy were randomized to receive doses of 0.5 mg, 2 mg, or 5 mg/day of 2-(cyclohexylmethyl)-N-{2-[(2S)-1-methylpyrrolidin-2-yl]ethyl}-1,2,3,4-tetrahydroisoquinoline-7-sulfonamide difumarate monohydrate or placebo for 24 weeks, with a 10 week follow-up period.
(§3) Patients were randomized to receive 0.5 mg, 2 mg, or 5 mg of 2-(cyclohexylmethyl)-N-{2-[(2S)-1-methylpyrrolidin-2-yl]ethyl}-1,2,3,4-tetrahydroisoquinoline-7-sulfonamide difumarate monohydrate (measured in base form), or matching placebo once a day, with donepezil (5 mg or 10 mg in the form the patient took prior to enrollment), for 24 weeks, with or without food.
Change from baseline to Week 12 and 24 in the Apathy Evaluation Scale for Informant (AES-I) score; and […]

[2] = system: patients with mild to moderate Alzheimer's disease; assay: clinical study, responder analysis on combined criterion (ADAS-Cog, ADCS-ADL, CGIC); settings: week 24
Source text: FIG. 7 illustrates the rate of “responders” at week 24 for the four dose group according to a combined criterion on the ADAS-Cog (2 points improvement vs baseline), ADCS-ADL (no worsening) and CGIC (no worsening) during the clinical study described in Example 2, in the mITT population.
“CGIC” as used herein, refers to the Clinical Global impression of Change assessed (at week 12 and week 24 during the clinical study described in Example 2) by the investigator according to 3 modalities: “Improvement” (includes marked, moderate and minimal improvement), “No change” and “Worsening” (includes minimal, moderate and marked worsening).
FIG. 7 illustrates the responder analysis at week 24 based on a combined criterion defined as followed: […]
change from baseline to Week 24 lower than or equal to −2 points in the ADAS-Cog total score, and
change from baseline to Week 24 greater than or equal to 0 point in the ADCS-ADL global score, and
no worsening according to the CGIC assessment at Week 24.

[3] = system: patients with mild to moderate Alzheimer's disease; assay: clinical study, Neuropsychiatric Inventory (NPI) domain scores
Protocol: as §1, §2, §3
[…] (NPI) domain scores of irritability/lability, anxiety, agitation/aggression, sleep and nighttime behavior disorders, aberrant motor behaviour, apathy/indifference, appetite/eating change, delusions, depression/dysphoria, disinhibition, elation/euphoria, and hallucinations.

CN1CCC[C@H]1CCNS(=O)(=O)c1ccc2c(c1)CN(CC1CCCCC1)CC2 [API, 2-(cyclohexylmethyl)-N-{2-[(2S)-1-methylpyrrolidin-2-yl]ethyl}-1,2,3,4-tetrahydroisoquinoline-7-sulfonamide difumarate monohydrate]
AES-I change from baseline vs placebo ([1]; after 12 weeks, mITT): significant difference
AES-I difference vs placebo ([1]; at 24 weeks and follow-up): no longer significant
rate of responder on a combined criterion (ADAS-Cog, ADCS-ADL, CGIC) ([2]; 5 mg group with donepezil): 16.7%
rate of responders over placebo ([2]; 5 mg/day with donepezil): higher rate
NPI Abberant motor behavior, Ch from bl W12 ([3]; 0.5 mg/day with donepezil): −0.08
NPI Abberant motor behavior, Ch from bl W24 ([3]; 0.5 mg/day with donepezil): 0.42
NPI Agitation/Aggression, Ch from bl W12 ([3]; 0.5 mg/day with donepezil): 0.23
NPI Agitation/Aggression, Ch from bl W24 ([3]; 0.5 mg/day with donepezil): 0.04
NPI Anxiety, Ch from bl W12 ([3]; 0.5 mg/day with donepezil): 0.20
NPI Anxiety, Ch from bl W24 ([3]; 0.5 mg/day with donepezil): 0.16
NPI Apathy/Indifference, Ch from bl W12 ([3]; 0.5 mg/day with donepezil): −0.21
NPI Apathy/Indifference, Ch from bl W24 ([3]; 0.5 mg/day with donepezil): 0.13
NPI Appetite/Eating changes, Ch from bl W12 ([3]; 0.5 mg/day with donepezil): −0.58
NPI Appetite/Eating changes, Ch from bl W24 ([3]; 0.5 mg/day with donepezil): −0.33
NPI Delusions, Ch from bl W12 ([3]; 0.5 mg/day with donepezil): 0.31
NPI Delusions, Ch from bl W24 ([3]; 0.5 mg/day with donepezil): 0.28
NPI Depression/Dysphoria, Ch from bl W12 ([3]; 0.5 mg/day with donepezil): 0.00
NPI Depression/Dysphoria, Ch from bl W24 ([3]; 0.5 mg/day with donepezil): 0.07
NPI Disinhibition, Ch from bl W12 ([3]; 0.5 mg/day with donepezil): −0.13
NPI Disinhibition, Ch from bl W24 ([3]; 0.5 mg/day with donepezil): −0.06
NPI Elation/Euphoria, Ch from bl W12 ([3]; 0.5 mg/day with donepezil): 0.15
NPI Elation/Euphoria, Ch from bl W24 ([3]; 0.5 mg/day with donepezil): 0.20
NPI Hallucination, Ch from bl W12 ([3]; 0.5 mg/day with donepezil): 0.05
NPI Hallucination, Ch from bl W24 ([3]; 0.5 mg/day with donepezil): −0.06
NPI Irritability lability, Ch from bl W12 ([3]; 0.5 mg/day with donepezil): −0.07
NPI Irritability lability, Ch from bl W24 ([3]; 0.5 mg/day with donepezil): 0.09
NPI Sleep and nighttime behavior, Ch from bl W12 ([3]; 0.5 mg/day with donepezil): 0.30
NPI Sleep and nighttime behavior, Ch from bl W24 ([3]; 0.5 mg/day with donepezil): −0.23
NPI Abberant motor behavior, Ch from bl W12 ([3]; 2 mg/day with donepezil): 0.25
NPI Abberant motor behavior, Ch from bl W24 ([3]; 2 mg/day with donepezil): 0.56
NPI Agitation/Aggression, Ch from bl W12 ([3]; 2 mg/day with donepezil): 0.48
NPI Agitation/Aggression, Ch from bl W24 ([3]; 2 mg/day with donepezil): 0.68
NPI Anxiety, Ch from bl W12 ([3]; 2 mg/day with donepezil): −0.03
NPI Anxiety, Ch from bl W24 ([3]; 2 mg/day with donepezil): 0.15
NPI Apathy/Indifference, Ch from bl W12 ([3]; 2 mg/day with donepezil): 0.26
NPI Apathy/Indifference, Ch from bl W24 ([3]; 2 mg/day with donepezil): 0.92
NPI Appetite/Eating changes, Ch from bl W12 ([3]; 2 mg/day with donepezil): −0.18
NPI Appetite/Eating changes, Ch from bl W24 ([3]; 2 mg/day with donepezil): −0.02
NPI Delusions, Ch from bl W12 ([3]; 2 mg/day with donepezil): −0.05
NPI Delusions, Ch from bl W24 ([3]; 2 mg/day with donepezil): 0.21
NPI Depression/Dysphoria, Ch from bl W12 ([3]; 2 mg/day with donepezil): 0.35
NPI Depression/Dysphoria, Ch from bl W24 ([3]; 2 mg/day with donepezil): 0.12
NPI Disinhibition, Ch from bl W12 ([3]; 2 mg/day with donepezil): 0.08
NPI Disinhibition, Ch from bl W24 ([3]; 2 mg/day with donepezil): 0.03
NPI Elation/Euphoria, Ch from bl W12 ([3]; 2 mg/day with donepezil): −0.06
NPI Elation/Euphoria, Ch from bl W24 ([3]; 2 mg/day with donepezil): 0.07
NPI Hallucination, Ch from bl W12 ([3]; 2 mg/day with donepezil): 0.02
NPI Hallucination, Ch from bl W24 ([3]; 2 mg/day with donepezil): 0.02
NPI Irritability lability, Ch from bl W12 ([3]; 2 mg/day with donepezil): 0.47
NPI Irritability lability, Ch from bl W24 ([3]; 2 mg/day with donepezil): 0.63
NPI Sleep and nighttime behavior, Ch from bl W12 ([3]; 2 mg/day with donepezil): 0.33
NPI Sleep and nighttime behavior, Ch from bl W24 ([3]; 2 mg/day with donepezil): 0.19
NPI Abberant motor behavior, Ch from bl W12 ([3]; 5 mg/day with donepezil): −0.11
NPI Abberant motor behavior, Ch from bl W24 ([3]; 5 mg/day with donepezil): −0.69
NPI Agitation/Aggression, Ch from bl W12 ([3]; 5 mg/day with donepezil): −0.12
NPI Agitation/Aggression, Ch from bl W24 ([3]; 5 mg/day with donepezil): 0.58
NPI Anxiety, Ch from bl W12 ([3]; 5 mg/day with donepezil): 0.12
NPI Anxiety, Ch from bl W24 ([3]; 5 mg/day with donepezil): 0.12
NPI Apathy/Indifference, Ch from bl W12 ([3]; 5 mg/day with donepezil): 0.09
NPI Apathy/Indifference, Ch from bl W24 ([3]; 5 mg/day with donepezil): 0.10
NPI Appetite/Eating changes, Ch from bl W12 ([3]; 5 mg/day with donepezil): −0.17
NPI Appetite/Eating changes, Ch from bl W24 ([3]; 5 mg/day with donepezil): 0.1
NPI Delusions, Ch from bl W12 ([3]; 5 mg/day with donepezil): 0.00
NPI Delusions, Ch from bl W24 ([3]; 5 mg/day with donepezil): 0.04
NPI Depression/Dysphoria, Ch from bl W12 ([3]; 5 mg/day with donepezil): −0.07
NPI Depression/Dysphoria, Ch from bl W24 ([3]; 5 mg/day with donepezil): 0.25
NPI Disinhibition, Ch from bl W12 ([3]; 5 mg/day with donepezil): 0.00
NPI Disinhibition, Ch from bl W24 ([3]; 5 mg/day with donepezil): 0.06
NPI Elation/Euphoria, Ch from bl W12 ([3]; 5 mg/day with donepezil): 0.14
NPI Elation/Euphoria, Ch from bl W24 ([3]; 5 mg/day with donepezil): 0.10
NPI Hallucination, Ch from bl W12 ([3]; 5 mg/day with donepezil): −0.14
NPI Hallucination, Ch from bl W24 ([3]; 5 mg/day with donepezil): −0.15
NPI Irritability lability, Ch from bl W12 ([3]; 5 mg/day with donepezil): 0.03
NPI Irritability lability, Ch from bl W24 ([3]; 5 mg/day with donepezil): 0.47
NPI Sleep and nighttime behavior, Ch from bl W12 ([3]; 5 mg/day with donepezil): 0.08
NPI Sleep and nighttime behavior, Ch from bl W24 ([3]; 5 mg/day with donepezil): 0.71
domains of the NPI, overall ([3]; 0.5, 2, 5 mg/day with donepezil): No relevant modification
